Measured values reported in patent publication US9012036B2, “Organometallic complex, composition and light emitting element including the organometallic complex” (Semiconductor Energy Laboratory Co., Ltd., priority 2007, dated 2015).

What was measured:
[1] = decomposition temperature by differential thermal balance (TG-DTA); format: physicochemical; conditions: temperature increase rate 10° C./min, normal atmospheric pressure
Description: The decomposition temperature of the obtained organometallic complex of the present invention, [Ir(tppr)2(dpm)], was measured with a high vacuum differential type differential thermal balance (TG-DTA2410SA, manufactured by Bruker AXS K.K.). The temperature increase rate was 10° C./min, and the temperature was increased under normal atmospheric pressure.

[2] = solubility test in various solvents; format: physicochemical; conditions: for solubility in dimethylformamide (DMF) / solubility x, Solvents not having aromatic ring DMF: solvent DMF; for solubility in chloroform / solubility x, Solvents not having aromatic ring chloroform: solvent chloroform; for solubility in dioxane / solubility x, Ethers dioxane: solvent dioxane; for solubility in toluene / solubility x, sovents having aromatic ring toluene: solvent toluene
Description: In this Example, the solubility of an organometallic complex including a pyrazine skeleton described in Embodiment Mode 1 was measured. The measurement was performed by examining the solubility in various solvents: 2-ethoxyethanol, isopropanol, and ethanol, which are alcohols; dioxane, which is ether; chloroform and dimethylformamide (DMF), which are an organic solvent not including an aromatic ring; and toluene, which is an aromatic hydrocarbon-based solvent.
Among the complexes disclosed in Embodiment Mode 1, [Ir(tppr)2(dpm)] represented by the structural formula (147), which was synthesized in Example 1, is selected as a measurement object. The solubility was investigated. […]

decomposition temperature (reduction in weight by 5%) [1] [°C] | solubility x, Alcohols 2-ethoxyethanol ([2]; solvent 2-ethoxyethanol) | solubility in dimethylformamide (DMF) [2] [mg/mL] | solubility x, Solvents not having aromatic ring DMF [2] | solubility in chloroform [2] [mg/mL] | solubility x, Solvents not having aromatic ring chloroform [2] | solubility in dioxane [2] [mg/mL] | solubility x, Ethers dioxane [2] | solubility in ethanol ([2]; solvent ethanol) [mg/mL] | solubility x, Alcohols ethanol ([2]; solvent ethanol) | solubility in isopropanol ([2]; solvent isopropanol) [mg/mL] | solubility x, Alcohols isopropanol ([2]; solvent isopropanol) | solubility in toluene [2] [mg/mL] | solubility x, sovents having aromatic ring toluene [2] | Substance
327 | ⊚ (x ≧ 1.2) | ≥ 1.2 | ⊚ (x ≧ 1.2) | ≥ 1.2 | ⊚ (x ≧ 1.2) | ≥ 1.2 | ⊚ (x ≧ 1.2) | ≥ 0.6 | Δ (0.9 > x ≧ 0.6) | ≥ 0.6 | Δ (0.9 > x ≧ 0.6) | ≥ 0.6 | Δ (0.9 > x ≧ 0.6) | bis(2,3,5-triphenylpyrazinato)(dipivaloylmethanato)iridium(III) [Ir(tppr)2(dpm)]
– | – | ≥ 1.2 | ⊚ (x ≧ 1.2) | ≥ 1.2 | ⊚ (x ≧ 1.2) | ≥ 1.2 | ⊚ (x ≧ 1.2) | – | – | – | – | ≥ 1.2 | ⊚ (x ≧ 1.2) | bis(2,3,5-triphenylpyrazinato)(pivaloyltrifluoroacetonato)iridium(III) [Ir(tppr)2(pFac)]
